As a reminder, the IC50 is the midpoint of a concentration-inhibition curve. Lower therefore signals greater potency in that assay.

The text below walks through data of ChEMBL document CHEMBL1148585, “Classification of chemical compounds by protein-compound docking for use in designing a focused library” (J Med Chem, 2006).

Structures are written as SMILES.

The experiment has as its target T1, Macrophage migration inhibitory factor (Homo sapiens, UniProt P14174).
T1 sequence (P14174 whole entry): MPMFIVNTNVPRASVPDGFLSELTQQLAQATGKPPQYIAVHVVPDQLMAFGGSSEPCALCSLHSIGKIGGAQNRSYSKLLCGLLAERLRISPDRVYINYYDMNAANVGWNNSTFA
The experiment in a line: Inhibition of MIF.
Compound `Oc1ccc(CSc2ccncc2)cc1O` showed an IC50 of 0.4 µM.

In turn, `O=C(c1cnc(CCCC2CCCCC2)o1)N1CCN(Cc2ccccc2)CC1` had an IC50 of 30 µM.

Compound `CC(C)C(=O)Nc1cc2c(cc1CCc1cccc3ccccc13)C(C(=O)O)CC2c1cccs1` (stereo not given) yielded an IC50 of 8 µM.

`O=C(O)C1Nc2ccc(Br)cc2C2C=CCC12` (stereo not given) showed an IC50 of 3.4 µM. Against the preceding compound, the IC50 is about 2.4-fold lower.

`O=C(O)CC(c1ccc(Cl)cc1)(c1ccc(Cl)cc1)c1ccc(Cl)cc1` came in with an IC50 of 8.1 µM.
